Test results: patent publication US8691949B2, “Peptide having anti-diabetic activity and use thereof” (MG Pharma Inc., priority 2008, dated 2014)
Residues, ends and D or L forms follow the SMILES beside them.

Assay: in vivo
Conditions: mouse, po, 2 g/kg body weight

Structure (SMILES): CC(C)C[C@H](NC(=O)[C@H](CCC(=O)O)NC(=O)[C@H](CO)NC(=O)[C@@H](N)CC(C)C)C(=O)O [LSEL, Leu-Ser-Glu-Leu] (H-LSEL-OH)
- LD50: > 2000 mg/kg
